{"source": "patent US20230165817A1", "about": "“DOPAMINERGIC MIMETICS” (TDELTAS LIMITED, priority 2004, published 2023)", "key": {"[1]": {"test_system": "electrical power of four rat brain areas (frontal cortex, hippocampus, striatum, reticular formation)", "test": "EEG measurements (Tele-Stereo-EEG) in freely-moving rats after single intraperitoneal injection", "assay_type": "in vivo, Fisher rats", "excerpt": "Analysis of brain field potentials (“Tele-Stereo-EEG”) has been proven to be a very sensitive tool for the characterization of drug effects on the central nervous system (Dimpfel et al., 1986). After administration of a centrally active drug, quantitative changes in the brain field potentials can be considered as a characteristic fingerprint of that particular drug. “Fingerprints” of more than 100 compounds have been obtained including 8 established drug categories, e.g. stimulants, sedatives, hallucinogenics, tranquilizers, analgesics, antidepressants, neuroleptics, and narcotics. Different dosages of the same drug cause quantitative changes in electrical power. […] Direct comparison with specific reference drugs, or by discriminant analysis with reference to an extensive fingerprint database, permits the detection of any possible similarities with established drugs. In general, “fingerprints” show prominent differences for drugs prescribed for different indications and are similar for drugs with similar indication (Dimpfel, 2003). Furthermore, the pattern of EEG changes in the rat is a useful tool in predicting possible changes in the EEG power spectrum in humans.\nAdult Fisher rats (4-6 month of age and day-night converted, bodyweight approximately 400 g) were implanted with 4 bipolar concentric steel electrodes using a stereotaxic surgical procedure. According to the coordinates of Paxinos and Watson (1982), all four electrodes were placed 3 mm lateral within the left hemisphere. Anterior coordinates were 12.2, 5.7, 9.7 and 3.7 mm for frontal cortex, hippocampus, striatum and reticular formation, respectively. A baseplate carrying the electrodes and a 5-pin-plug was fixed to the skull by dental cement attached to 3 steel screws fixed into the skull. Animals were given two weeks for recovery from the surgical procedure.\nEEG signals were recorded from frontal cortex, hippocampus, striatum and reticular formation and were amplified and processed as described by Dimpfel et al. (1986). After automatic artefact rejection, signals were collected in sweeps of 4 s duration and submitted to Fast Fourier transformation. The resulting electrical power spectra were divided into 6 frequency ranges: delta (0.8-4.5 Hz); theta (4.75-6.75 Hz); alpha1 (7.00-9.50 Hz); alpha2 (9.75-12.50 Hz); beta (12.75-18.50 Hz); beta2 (18.75-35.00 Hz). […] In an off-line procedure spectra were averaged to give 15 minute or longer periods for further statistical analysis.\nFour doses of KTX 0101 (sodium (R)-3-hydroxybuytrate: 100, 300, 600 and 1000 mg/kg body weight) (supplied by Solvias AG, CH 4002 Basel, Switzerland, batch No: SO-1058.047.1.120) and a vehicle control (0.9% w/v saline) were administered intraperitoneally to a group of 12 animals using a crossover design with at least 3 drug holidays in between the applications. After a pre-drug period of 45 minutes for baseline recording, drug effects were observed continuously for 300 minutes. Changes of electrical power (μV2/W) are expressed as percentage of the 45 minute pre-drug values. Multivariate statistics were calculated according to Ahrens and Läuter (1974)."}, "[2]": {"test": "Plasma determination of (R)-3-hydroxybutyrate after intraperitoneal injection", "assay_type": "in vivo, Sprague-Dawley rats", "conditions": "rat", "method": "(§1) One hundred and seventy-one male Sprague-Dawley rats (weight range 200-250 g) housed on a standard […] were used. Animals had free access to a standard pelleted rat diet and tap water at all times. KTX 0101 (sodium (R)-3-hydroxybuytrate; 100, 300, 600 and 1000 mg/kg body weight) supplied by Sigma (H6501, Lot 111K2618) was administered by intraperitoneal injection. Control animals received the appropriate 0.9% saline vehicle via the same route. Animals were killed by CO2 asphyxiation 0 h, 0.5 h, 1.0 h or 2.0 h after dosing and a terminal blood sample was collected by cardiac puncture. Blood was taken in lithium heparinised tubes and kept on ice prior to centrifugation to yield the plasma samples for analysis.\nCommercial clinical assay kits for the determination of D-β-hydroxybutyrate were obtained from Randox Laboratories (Antrim, UK). The kit quantified NADH via the activity of β-hydroxybutyrate dehydrogenase measured as an increase in OD340 nm. An alkaline pH is necessary to drive the reaction equilibrium towards the production of NADH and acetoacetate.\nThis spectrophotometric assay was modified for application to a 96 well microplate format. The reaction rate was then determined from the increase in OD340 nm over a 1 minute time course, after allowing a necessary period for the reaction rate to settle."}, "[3]": {"test": "Plasma determination of acetoacetate after intraperitoneal injection", "assay_type": "in vivo, Sprague-Dawley rats", "conditions": "30 min after dosing, rat", "method": "as §1\nThe assay developed for the determination of acetoacetate was based on previously published clinical assays (Li et al, 1980; McMurray et al, 1984). A different assay buffer was prepared (0.1M Na2PO4 adjusted to pH 7.0 with HCl) in order to shift the equilibrium of the reaction to production of β hydroxybutyrate and NAD+. Other modifications included the additional use of sodium oxalate at a final assay concentration of 20 mM to inhibit lactate dehydrogenase (LDH) present in the plasma samples. […]\nAcetoacetate was measured via the reduction in OD340 nm over a 1 minute period after allowing for the reaction rate to settle."}, "[4]": {"test_system": "electrical power of four rat brain areas (frontal cortex, hippocampus, striatum, reticular formation)", "conditions": "literature (Dimpfel et al., 1987; Dimpfel, 2003); cited from earlier work"}}, "data": [{"molecule": "C[C@@H](O)CC(=O)[O-].[Na+]", "note": "[KTX 0101, sodium (R)-3-hydroxybuytrate]", "values": [{"measurement": "Duration of EEG effects", "setting": "[1]; 100 mg/kg body weight ip, rat", "result": "1 to 2", "unit": "h"}, {"measurement": "Statistical significance of EEG changes", "setting": "[1]; 100 mg/kg body weight ip, rat", "result": "not statistically significant"}, {"measurement": "Changes in EEG power spectrum (frequency changes)", "setting": "[1]; 100 mg/kg body weight ip, rat, vs pre-drug values", "result": "decrease of electrical power mainly with regard to alpha2"}, {"measurement": "Duration of EEG pattern of changes", "setting": "[1]; 300 mg/kg ip, rat", "result": 2, "unit": "h"}, {"measurement": "Statistical significance of EEG changes", "setting": "[1]; 300 mg/kg ip, rat", "result": "only statistically significant in the reticular formation"}, {"measurement": "Changes in EEG power spectrum (frequency changes)", "setting": "[1]; 300 mg/kg ip, rat, vs pre-drug values", "result": "decreases in alpha2 power throughout all brain regions"}, {"measurement": "Duration of EEG effects", "setting": "[1]; 600 mg/kg ip, rat, brain regions except reticular formation", "result": "~2", "unit": "h"}, {"measurement": "Statistical significance of EEG changes", "setting": "[1]; 600 mg/kg ip, rat, including first hour within striatum and all 24 variables", "result": "statistically significant"}, {"measurement": "Duration of decreases in EEG power in the reticular formation", "setting": "[1]; 600 mg/kg ip, rat, reticular formation", "result": "persisted throughout the third hour"}, {"measurement": "Changes in EEG power spectrum (frequency changes)", "setting": "[1]; 1000 mg/kg ip, rat", "result": "identical pattern of change, but with more prominent decreases of power"}, {"measurement": "Duration of decreases of EEG power", "setting": "[1]; 1000 mg/kg ip, rat", "result": "lasting into the third hour"}, {"measurement": "Statistical significance of EEG changes", "setting": "[1]; 1000 mg/kg ip, rat, even for the 4th hour within the reticular formation", "result": "statistically significant"}, {"measurement": "Duration of decreases of EEG power in the reticular formation", "setting": "[1]; 1000 mg/kg ip, rat, reticular formation, total experimental time", "result": 5, "unit": "h"}, {"measurement": "Similarity of qEEG fingerprint to drug classes by discriminant analysis", "setting": "[1]; 24 variables, 20th to 50th min after single-dose application, rat", "result": "close proximity to the dopamine reuptake inhibitor, cocaine and the dopamine releasing agent, d-amphetamine"}, {"measurement": "Period of greatest changes in EEG patterns", "setting": "[1]; after ip injection, rat", "result": "5 to 65", "unit": "min"}, {"measurement": "EEG changes, summary over dose range", "setting": "[1]; dose range 300 to 1000 mg/kg ip, rat", "result": "clear, dose- and time-dependent statistically significant changes"}, {"measurement": "Specific EEG frequencies changed", "setting": "[1]; rat, ip", "result": "decrease the delta, theta and alpha2 EEG frequencies"}, {"measurement": "EEG power spectrum changes, dose dependence", "setting": "[1]; single ip injection, range 100 to 1000 mg/kg, freely-moving rats", "result": "clear, dose-dependent changes in the EEG power spectrum"}, {"measurement": "Plasma concentration of (R)-3-hydroxybutyrate", "setting": "[2]; 100, 300, 600 and 1000 mg/kg ip", "result": "clear dose-dependent increases"}, {"measurement": "Time at which plasma (R)-3-hydroxybutyrate had returned to control values", "setting": "[2]; 100-1000 mg/kg ip, after injection", "result": "≤ 1", "unit": "h"}, {"measurement": "Time of highest elevations in plasma (R)-3-hydroxybutyrate", "setting": "[2]; 100-1000 mg/kg ip, first sample", "result": 30, "unit": "min"}, {"measurement": "Plasma concentration of acetoacetate", "setting": "[3]; 600 mg/kg ip", "result": "significantly increased"}, {"measurement": "Plasma concentration of acetoacetate", "setting": "[3]; 1000 mg/kg ip", "result": "significantly increased"}]}, {"molecule": "Oc1cc2c(cc1O)C(c1ccccc1)CNCC2", "note": "(stereo not shown) [SKF 38393]", "values": [{"measurement": "EEG frequency changes of drugs enhancing dopaminergic function", "setting": "[4]", "result": "decrease delta, theta and alpha2 frequencies"}]}, {"molecule": "N[C@@H](Cc1ccc(O)c(O)c1)C(=O)O", "note": "[L-DOPA]", "values": [{"measurement": "EEG frequency changes of drugs enhancing dopaminergic function", "setting": "[4]", "result": "decrease delta, theta and alpha2 frequencies"}]}]}
